“Also recorded” adds a separate entry of the source.
Test system: Marchigian Sardinian alcohol-preferring (msP) rats
Assay: Operant ethanol self-administration in msP rats
Format: in vivo, rat
Details: for operant responding for alcohol (10% ethanol self-administration), overall: oral 1 h before 30-min session, all doses tested (H0847 1, 3; H0816 3, 10; H0900 and H0860 3, 30 mg/kg)
Procedure: Training continued until stable baseline of alcohol responding was achieved. At this point, before initiation of treatments, rats were trained to gavage administration procedures for three consecutive days (pre-treatment phase) during which they received drug vehicle. At this point animals were tested for the effect of ghrelin antagonists on 10% (v/v) ethanol self-administration. Using a within-subject Latin square design, the first group of msP rats (N=12) was tested for the effect of H0847 (0.0, 1.0 and 3.0 mg/kg), while the second (N=12) was treated with H0816 (0.0, 3.0 and 10.0 mg/kg).
Once the experiment was finished, animals were left in their home cages for several days, in order to wash out the drugs. Then, the same rats were employed to test the remaining ghrelin antagonists compounds H0900 (0.0, 3.0 and 30.0 mg/kg) and H0860 (0.0, 3.0 and 30.0 mg/kg). Once a stable self-administration baseline was reached, treatments begun according to the same experimental procedures described for the previous drugs tested.
All the drugs (or vehicles) were administered orally 1 hour before the beginning of the operant session.
Male genetically selected alcohol-preferring Marchigian Sardinian (msP) rats were used (N=24). At the time of the experiments their body weight ranged between 350 and 400 g. They were housed 4 per cages in a room with a reverse 12:12 h light/dark cycle (lights off at 9:30 a.m.), temperature of 20-22° C. and humidity of 45-55%. Rats were offered free access to tap water and food pellets (4RF18, Mucedola, Settimo Milanese, Italy). All the procedures were conducted in adherence with the European Community Council Directive for Care and Use of Laboratory Animals and the National Institutes of Health Guide for the Care and Use of Laboratory Animals.
75 mg of each H0900 and H0860 were accurately weighed and suspended in 10 ml of 0.5% carboxymethyl cellulose sodium salt solution (CMC, Sigma-Aldrich Cat. C4888, lot 120M0216V). The lower dose solution was prepared by dilution of 30 mg/ml suspension with 0.5% CMC solution.
37.5 mg of H0816 were accurately weighed and suspended in 15 ml of 0.5% carboxymethyl cellulose sodium salt solution (CMC, Sigma-Aldrich Cat. C4888, lot 120M0216V). The lower dose solution was prepared by dilution of mg/ml suspension with 0.5% CMC solution.
11.25 mg of H0847 were accurately weighed and suspended in 15 ml of 0.5% carboxymethyl cellulose sodium salt solution (CMC, Sigma-Aldrich Cat. C4888, lot 120M0216V). The lower dose solution was prepared by dilution of mg/ml suspension with 0.5% CMC solution.
Suspensions were prepared freshly on test day. Vehicle was composed of a solution of 0.5% carboxymethyl cellulose sodium salt and was prepared by dissolving 1 g of CMC in 200 ml of distilled water. Vehicle and drugs were administered by gavage in a volume of 4 ml/kg of body weight 1 hour before the access to 10% alcohol solution. 10% (v/v) ethanol solution was prepared every two days by diluting 95% (v/v) ethanol solution (F.L. CARSETTI s.n.c-CAMERINO) in drinkable water.
The self-administration stations consisted of operant conditioning chambers (Med Associate, Inc) enclosed in sound-attenuating, ventilated environmental cubicles. Each chamber was equipped with a drinking reservoir (volume capacity: […]) positioned 4 cm above the grid floor in the centre of the front panel of the chamber, two retractable levers located 3 cm (one to the right and the other to the left) of the drinking receptacle and a white cue light located 6 cm above the lever. […] An IBM-compatible computer controlled the delivery of fluids (activation of syringe pump), presentation of visual stimuli and recording of the behavioral data.
Using operant self-administration chambers (Med Associates), msP rats were trained to lever press for 10% alcohol (v/v) until stable baseline of responding were achieved. 16 self-administration training sessions were carried out to train the animals. […]

[1] = 3 mg/kg oral 1 h before session
[2] = 30 mg/kg oral 1 h before session

| Compound | operant responding for alcohol (10% ethanol self-administration), overall | alcohol self-administration, post hoc [1] | alcohol self-administration, post hoc [2] |
| --- | --- | --- | --- |
| C[C@H](NC(=O)N(C)C1CCN(C)CC1)c1ccc(-c2cnccn2)c(Cl)c1Cl [Compound H0816, (S)-3-(1-(2,3-dichloro-4-(pyrazin-2-yl)phenyl)ethyl)-1-methyl-1-(1-methylpiperidin-4-yl)urea] | had no effect on operant responding for alcohol; also recorded: had no effect on ethanol responses | – | – |
| C[C@H](NC(=O)N(C)C1CCN(C)CC1)c1ccc(-c2cncc(F)n2)c(Cl)c1Cl [Compound H0847, (S)-3-(1-(2,3-dichloro-4-(6-fluoropyrazin-2-yl)phenyl)ethyl)-1-methyl-1-(1-methylpiperidin-4-yl)urea] | had no effect on operant responding for alcohol; also recorded: had no effect on ethanol responses | – | – |
| CC[C@H](NC(=O)N(C)C1CCN(C)CC1)c1ccc(-c2cnccn2)c(Cl)c1Cl [Compound H0860, (S)-3-(1-(2,3-dichloro-4-(pyrazin-2-yl)phenyl)propyl)-1-methyl-1-(1-methylpiperidin-4-yl)urea] | significantly reduced operant responding for alcohol; also recorded: statistically significant decrease in ethanol self-administration | only the higher dose (30 mg/kg) reduced ethanol self-administration | significant reduction of alcohol self-administration |
| CN1CCC(N(C)C(=O)N[C@H](c2ccc(-c3cnccn3)c(Cl)c2Cl)C(F)(F)F)CC1 [Compound H0900, (R)-3-(1-(2,3-dichloro-4-(pyrazin-2-yl)phenyl)-2,2,2-trifluoroethyl)-1-methyl-1-(1-methylpiperidin-4-yl)urea] | significantly reduced operant responding for alcohol; also recorded: statistically significant decrease in ethanol self-administration | significant reduction of alcohol self-administration | significant reduction of alcohol self-administration |

From patent US9546157B2, “Asymmetric piperidinyl-substituted ureas as medicines” (Helsinn Healthcare SA, priority 2014, dated 2017)
